Drawing on patent US20100095396A1, “METHOD FOR INCREASING THE DRY BIOMASS OF PLANTS” (priority 2006, published 2010), this text covers Dry weight leaves and Dry weight roots for one compound.

For experiment [1], the system named is Soybean. The experiment can be described thus: Increase of the dry biomass of soybean plants after seed treatment. The class given is in vivo. The settings on record: harvested 35 days after emergence, dried at 110° C., free disease conditions. An excerpt:
(§1) Treatment with fipronil or fipronil+alpha-cypermethrin under free disease conditions
Soybean was cultivated under customary conditions at Campinas (Brazil) in 2005/2006. A part of the seeds of the test plants had beforehand been treated with fipronil. Another part of the seeds of the plants had beforehand been treated with a mixture of fipronil and alpha-cypermethrin. 35 days after the emergence of the plants, the plants and their roots were harvested. The leaves and the roots were completely dried in an oven at 110° C. and then weighed.

Experiment [2] has as its system Corn. The experiment in a line: Increase of the dry biomass of corn plants after seed treatment. The class given is in vivo. The note with it: harvested 37 days after emergence, dried at 110° C., free disease conditions.
Text: as §1
Corn was cultivated under customary conditions at Campinas (Brazil) in 2005/2006. A part of the seeds of the test plants had beforehand been treated with fipronil. Another part of the seeds of the plants had beforehand been treated with a mixture of fipronil and alpha-cypermethrin. 37 days after the emergence of the plants, the plants and their roots were harvested. The leaves and the roots were completely dried in an oven at 110° C. and then weighed.

In experiment [1], `N#Cc1nn(-c2c(Cl)cc(C(F)(F)F)cc2Cl)c(N)c1[S+]([O-])C(F)(F)F` (stereo not drawn) [Fipronil, 5-amino-1-(2,6-dichloro-α,α,α-trifluoro-p-tolyl)-4-trifluoromethylsulfinylpyrazole-3-carbonitrile] had a Dry weight leaves of 13.15 and a Dry weight roots of 15.6. In experiment [2], this compound returned a Dry weight leaves of 23.38 and a Dry weight roots of 41.27.
